Source: PubChem BioAssay AID2060501 (Molecular Pharmacology Branch, DTP, NCI, 2025)
pIC50: −log10 of the molar value.

Tested on: 282377-053-R-J1-PDC complex spheroids, viability
Experiment: Anticancer human tumor 282377-053-R-J1-PDC patient-derived colon adenocarcinoma cell line growth inhibition [GQUAD]
Details: for pIC50: curve of first compound; for viability, T/C: stronger effect = lower value
Summary of the method: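 Tumor cells were grown as complex spheroids with HUVEC endothelial cells and mesenchymal stem cells as stroma. G-quadruplex stabilizers were combined with targeted agents over half-log dilutions from near the clinical Cmax, or from 10 microM.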

[1] = second compound 0.0316 µM, first compound 0.0316 µM
[2] = second compound 0.0316 µM, first compound 0.1 µM
[3] = second compound 0.0316 µM, first compound 0.316 µM
[4] = second compound 0.0316 µM, first compound 1 µM
[5] = second compound 0.0316 µM, first compound 3.16 µM
[6] = second compound 0.0316 µM, first compound 10 µM
[7] = second compound 0.1 µM, first compound 0.0316 µM
[8] = second compound 0.1 µM, first compound 0.1 µM
[9] = second compound 0.1 µM, first compound 0.316 µM
[10] = second compound 0.1 µM, first compound 1 µM
[11] = second compound 0.1 µM, first compound 3.16 µM
[12] = second compound 0.1 µM, first compound 10 µM
[13] = second compound 0.316 µM, first compound 0.0316 µM
[14] = second compound 0.316 µM, first compound 0.1 µM
[15] = second compound 0.316 µM, first compound 0.316 µM
[16] = second compound 0.316 µM, first compound 1 µM
[17] = second compound 0.316 µM, first compound 3.16 µM
[18] = second compound 0.316 µM, first compound 10 µM
[19] = second compound 1 µM, first compound 0.0316 µM
[20] = second compound 1 µM, first compound 0.1 µM
[21] = second compound 1 µM, first compound 0.316 µM
[22] = second compound 1 µM, first compound 1 µM
[23] = second compound 1 µM, first compound 3.16 µM
[24] = second compound 1 µM, first compound 10 µM
[25] = second compound 3.16 µM, first compound 0.0316 µM
[26] = second compound 3.16 µM, first compound 0.1 µM
[27] = second compound 3.16 µM, first compound 0.316 µM
[28] = second compound 3.16 µM, first compound 1 µM
[29] = second compound 3.16 µM, first compound 3.16 µM
[30] = second compound 3.16 µM, first compound 10 µM
[31] = second compound 10 µM, first compound 0.0316 µM
[32] = second compound 10 µM, first compound 0.1 µM
[33] = second compound 10 µM, first compound 0.316 µM
[34] = second compound 10 µM, first compound 1 µM
[35] = second compound 10 µM, first compound 3.16 µM
[36] = second compound 10 µM, first compound 10 µM
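Note: spheroids exposed to compounds for 7 days before readout.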
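Throughout, for viability, T/C: percent of vehicle DMSO control viability with 100% = untreated-like growth.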

Question: With `CC(=O)O[C@H]1C(=O)[C@@]2(C)[C@H]([C@H](OC(=O)c3ccccc3)[C@]3(O)C[C@H](OC(=O)[C@H](O)[C@@H](NC(=O)c4ccccc4)c4ccccc4)C(C)=C1C3(C)C)[C@]1(OC(C)=O)CO[C@@H]1C[C@@H]2O` + Cc1[nH]c2ccc(F)cc2c1-c1nc2c3cccnc3c3ncccc3c2[nH]1 as the compound, how does the pIC50 (second compound 0.0316 µM) read?
Answer: 6.28

Question: What about the pIC50 (second compound 0.1 µM) of the same compound?
Answer: 6.23

Question: And the pIC50 (second compound 0.316 µM)?
Answer: 6.28

Question: And the pIC50 (second compound 1 µM)?
Answer: 6.21

Question: What about the pIC50 (second compound 3.16 µM) of the same compound?
Answer: 6.37

Question: And the pIC50 (second compound 10 µM)?
Answer: > 7.50

Question: What about the viability, T/C [1] of the same compound?
Answer: 115%

Question: And the viability, T/C [2]?
Answer: 112%

Question: And the viability, T/C [3]?
Answer: 84.6%

Question: And the viability, T/C [4]?
Answer: 4.01%

Question: What about the viability, T/C [5] of the same compound?
Answer: 0.1%

Question: What about the viability, T/C [6] of the same compound?
Answer: 0.12%

Question: And the viability, T/C [7]?
Answer: 108%

Question: And the viability, T/C [8]?
Answer: 107%

Question: What about the viability, T/C [9] of the same compound?
Answer: 106%

Question: What about the viability, T/C [10] of the same compound?
Answer: 3.64%

Question: And the viability, T/C [11]?
Answer: 0.06%

Question: What about the viability, T/C [12] of the same compound?
Answer: 0.09%

Question: What about the viability, T/C [13] of the same compound?
Answer: 107%

Question: And the viability, T/C [14]?
Answer: 111%

Question: And the viability, T/C [15]?
Answer: 79.5%

Question: What about the viability, T/C [16] of the same compound?
Answer: 10.8%

Question: And the viability, T/C [17]?
Answer: 0.05%

Question: And the viability, T/C [18]?
Answer: 0.21%

Question: What about the viability, T/C [19] of the same compound?
Answer: 116%

Question: What about the viability, T/C [20] of the same compound?
Answer: 90.3%

Question: And the viability, T/C [21]?
Answer: 110%

Question: What about the viability, T/C [22] of the same compound?
Answer: 9.92%

Question: What about the viability, T/C [23] of the same compound?
Answer: 0.04%

Question: And the viability, T/C [24]?
Answer: 0.07%

Question: And the viability, T/C [25]?
Answer: 92.8%

Question: What about the viability, T/C [26] of the same compound?
Answer: 109%

Question: What about the viability, T/C [27] of the same compound?
Answer: 66%

Question: And the viability, T/C [28]?
Answer: 4.89%

Question: What about the viability, T/C [29] of the same compound?
Answer: 0.11%

Question: And the viability, T/C [30]?
Answer: 0.1%

Question: And the viability, T/C [31]?
Answer: 36.7%

Question: And the viability, T/C [32]?
Answer: 43.9%

Question: And the viability, T/C [33]?
Answer: 59.1%

Question: And the viability, T/C [34]?
Answer: 10.1%

Question: What about the viability, T/C [35] of the same compound?
Answer: 0.17%

Question: And the viability, T/C [36]?
Answer: 0.46%

Question: With `CC[C@@]1(O)C(=O)OCc2c1cc1n(c2=O)Cc2cc3c(CN(C)C)c(O)ccc3nc2-1` + Cc1[nH]c2ccc(F)cc2c1-c1nc2c3cccnc3c3ncccc3c2[nH]1 as the compound, how does the pIC50 (second compound 0.0316 µM) read?
Answer: < 6.50

Question: What about the pIC50 (second compound 0.1 µM) of the same compound?
Answer: < 6.50

Question: What about the pIC50 (second compound 0.316 µM) of the same compound?
Answer: < 6.50

Question: What about the pIC50 (second compound 1 µM) of the same compound?
Answer: < 6.50

Question: What about the pIC50 (second compound 3.16 µM) of the same compound?
Answer: 6.89

Question: What about the pIC50 (second compound 10 µM) of the same compound?
Answer: > 9.00

Question: What about the viability, T/C (second compound 0.0316 µM, first compound 0.000999 µM) of the same compound?
Answer: 92.6%

Question: What about the viability, T/C (second compound 0.0316 µM, first compound 0.00316 µM) of the same compound?
Answer: 117%

Question: And the viability, T/C (second compound 0.0316 µM, first compound 0.00999 µM)?
Answer: 116%

Question: What about the viability, T/C [1] of the same compound?
Answer: 93.1%

Question: What about the viability, T/C (second compound 0.0316 µM, first compound 0.0999 µM) of the same compound?
Answer: 91.5%

Question: What about the viability, T/C [3] of the same compound?
Answer: 49.9%

Question: What about the viability, T/C (second compound 0.1 µM, first compound 0.000999 µM) of the same compound?
Answer: 126%

Question: And the viability, T/C (second compound 0.1 µM, first compound 0.00316 µM)?
Answer: 93.2%

Question: What about the viability, T/C (second compound 0.1 µM, first compound 0.00999 µM) of the same compound?
Answer: 87.1%

Question: And the viability, T/C [7]?
Answer: 92%

Question: And the viability, T/C (second compound 0.1 µM, first compound 0.0999 µM)?
Answer: 93.2%

Question: And the viability, T/C [9]?
Answer: 58.8%

Question: And the viability, T/C (second compound 0.316 µM, first compound 0.000999 µM)?
Answer: 80.3%

Question: What about the viability, T/C (second compound 0.316 µM, first compound 0.00316 µM) of the same compound?
Answer: 104%

Question: And the viability, T/C (second compound 0.316 µM, first compound 0.00999 µM)?
Answer: 103%

Question: What about the viability, T/C [13] of the same compound?
Answer: 94.2%

Question: And the viability, T/C (second compound 0.316 µM, first compound 0.0999 µM)?
Answer: 84%

Question: And the viability, T/C [15]?
Answer: 61.9%

Question: What about the viability, T/C (second compound 1 µM, first compound 0.000999 µM) of the same compound?
Answer: 86.6%

Question: And the viability, T/C (second compound 1 µM, first compound 0.00316 µM)?
Answer: 109%

Question: And the viability, T/C (second compound 1 µM, first compound 0.00999 µM)?
Answer: 94.8%

Question: And the viability, T/C [19]?
Answer: 102%

Question: What about the viability, T/C (second compound 1 µM, first compound 0.0999 µM) of the same compound?
Answer: 94.8%

Question: And the viability, T/C [21]?
Answer: 54.3%

Question: What about the viability, T/C (second compound 3.16 µM, first compound 0.000999 µM) of the same compound?
Answer: 77.8%

Question: What about the viability, T/C (second compound 3.16 µM, first compound 0.00316 µM) of the same compound?
Answer: 79.4%

Question: And the viability, T/C (second compound 3.16 µM, first compound 0.00999 µM)?
Answer: 81.4%

Question: What about the viability, T/C [25] of the same compound?
Answer: 58.3%

Question: And the viability, T/C (second compound 3.16 µM, first compound 0.0999 µM)?
Answer: 64%

Question: What about the viability, T/C [27] of the same compound?
Answer: 24.5%

Question: What about the viability, T/C (second compound 10 µM, first compound 0.000999 µM) of the same compound?
Answer: 36.6%

Question: What about the viability, T/C (second compound 10 µM, first compound 0.00316 µM) of the same compound?
Answer: 35.9%

Question: And the viability, T/C (second compound 10 µM, first compound 0.00999 µM)?
Answer: 48.3%

Question: What about the viability, T/C [31] of the same compound?
Answer: 41.5%

Question: And the viability, T/C (second compound 10 µM, first compound 0.0999 µM)?
Answer: 31.3%

Question: And the viability, T/C [33]?
Answer: 17.5%

Question: Which results are given for `COc1cc(C2c3cc4c(cc3C(OC3OC5COC(C)OC5C(O)C3O)C3COC(=O)C23)OCO4)cc(OC)c1O` (stereo unspecified) + Cc1[nH]c2ccc(F)cc2c1-c1nc2c3cccnc3c3ncccc3c2[nH]1?
Answer: pIC50 (second compound 0.0316 µM): < 5.00; pIC50 (second compound 0.1 µM): < 5.00; pIC50 (second compound 0.316 µM): < 5.00; pIC50 (second compound 1 µM): < 5.00; pIC50 (second compound 3.16 µM): 5.91; pIC50 (second compound 10 µM): 6.42; viability, T/C [1]: 99.9%; viability, T/C [2]: 102%; viability, T/C [3]: 104%; viability, T/C [4]: 89%; viability, T/C [5]: 66.5%; viability, T/C [6]: 62.6%; viability, T/C [7]: 94.3%; viability, T/C [8]: 108%; viability, T/C [9]: 83.5%; viability, T/C [10]: 98.2%; viability, T/C [11]: 76.4%; viability, T/C [12]: 70.1%; viability, T/C [13]: 102%; viability, T/C [14]: 117%; viability, T/C [15]: 96.2%; viability, T/C [16]: 105%; viability, T/C [17]: 76.9%; viability, T/C [18]: 54.2%; viability, T/C [19]: 113%; viability, T/C [20]: 95.5%; viability, T/C [21]: 95.2%; viability, T/C [22]: 94.1%; viability, T/C [23]: 72%; viability, T/C [24]: 54.4%; viability, T/C [25]: 72.5%; viability, T/C [26]: 85.6%; viability, T/C [27]: 73.5%; viability, T/C [28]: 56%; viability, T/C [29]: 24.8%; viability, T/C [30]: 23.2%; viability, T/C [31]: 52.7%; viability, T/C [32]: 44%; viability, T/C [33]: 63.8%; viability, T/C [34]: 32.7%; viability, T/C [35]: 16.1%; viability, T/C [36]: 17.5%
